Measurements published in PMC8306904, “Discovery of New Hits as Antitrypanosomal Agents by In Silico and In Vitro Assays Using Neolignan-Inspired Natural Products from Nectandra leucantha” (Molecules, 2021).
Like-named read-outs stand apart in the source and are kept apart here.

Assays:
[1] = system: amastigote forms of T. cruzi; assay: Activity against amastigote forms of T. cruzi in infected macrophages; format: cell-based, Trypanosoma cruzi; conditions: for SI: selectivity index (ratio CC50/IC50): CC50 against NCTC cells/IC50 against amastigotes
Method: To perform the experiments, peritoneal macrophages from BALB/c mice were infected with trypomastigotes forms of T. cruzi. The macrophages obtained from the peritoneal cavity of BALB/c mice were seeded on a 16-well chamber slide (NUNC plate, Merck; 1 × 10^5/well) and incubated for 24 h at 37 °C in a 5% CO2-humidified incubator. The trypomastigotes LLC-MK2 were counted and used to infect the macrophages (parasite:macrophage ratio = 10:1). After 2 h incubation at 37 °C in a 5% CO2-humidified incubator, free parasites were removed by 1× washing with the medium. […] Benznidazole was used as the standard drug. At the end of the assay, slides were fixed with MeOH, stained with Giemsa, and counted using light microscopy. The IC50 values were calculated as previously reported.

NCTC cells-clone L929 = system: NCTC cells-clone L929; set-up: method as in PMID 28864277, PMID 31103897, PMID 33047947; conditions: read-out: CC50, 50% cytotoxic concentration in NCTC cells (ATCC, clone 929); compounds 9–33 and 36–50; ref [8],[10],[26]; cited from earlier work
[2] = system: amastigote forms of T. cruzi; set-up: method as in PMID 28864277, PMID 31103897, PMID 33047947; conditions: read-out: IC50, 50% inhibitory concentration against amastigote forms of T. cruzi; intracellular amastigotes; compounds 9–33 and 36–50; ref [8],[10],[26]; cited from earlier work
[3] = Cytotoxicity against mammalian cells (MTT); format: cell-based; conditions: mouse, NCTC clone L929 cells (murine conjunctive cells)
Method: The optical density was determined using FilterMax F5 (Molecular Devices) at 570 nm. We calculated the selectivity index (SI) values using the following equation: CC50 against NCTC cells/IC50 against amastigotes.

[4] = Trypanosoma cruzi, Macrophage, -log IC50 against amastigotes, Table 1 and Figure 7, read-out: pIC50 Experimental (converted)
[5] = Trypanosoma cruzi, Peritoneal macrophage, in Mus musculus, 48 h, read-out: IC50, 50% inhibitory concentration against amastigote forms of T. cruzi, intracellular amastigotes in BALB/c peritoneal macrophages, 48 h, 30 to […]
[6] = Trypanosoma cruzi, Macrophage, Table S2, -log IC50, supplement numbering, read-out: pIC50 (converted)

Row | Compound | IC50 [1, 4] | CC50 (NCTC cells-clone L929) | IC50 [2] | CC50 at 48 h [3] | SI: selectivity index (ratio CC50/IC50) [1] | IC50 [1, 5] | IC50 [1, 6] | pIC50 Experimental ([1]; -log IC50 against amastigotes, Table 1 and Figure 7) | IC50 ([1]; Trypanosoma cruzi, Macrophage, Table S1, test set, supplement numbering, read-out: Exp. pIC50 (converted)) | IC50 ([1]; read-out: IC50, 50% inhibitory concentration against amastigote forms of T. cruzi, intracellular amastigotes in BALB/c peritoneal macrophages, 48 h, 30 to […])
1 | C=CCc1cc(OC)c(OC)c(Oc2ccccc2OC)c1 [Compound 47] | > 30 µM | > 200 µM | > 30 µM | – | – | – | – | – | – | –
2 | C=CCc1cc(OC)cc(Oc2ccc(CC=C)cc2OC)c1 [Compound 34] | 5.75 µM | – | – | > 200 µM | >34.5 | 5.8 ± 0.7 µM | – | – | – | –
3 | C=CCc1ccc(Oc2cccc(OC)c2OC)c(OC)c1 [Compound 42] | 25.7 µM | > 200 µM | 25.7 ± 12.2 µM | – | >7.8 | – | – | – | – | –
4 | C=CCc1cc(OC)c(OCc2ccc(OC)cc2)c(Oc2ccccc2OC)c1 [Compound 48] | > 30 µM | > 200 µM | > 30 µM | – | – | – | – | – | – | –
5 | COc1cc(CC2CO2)ccc1Oc1cc(CC2CO2)cc(OC)c1OC (stereo not drawn) [Compound 25] | > 30 µM | > 200 µM | > 30 µM | – | – | – | – | – | – | –
6 | C=CCc1ccc(Oc2cc(CC=C)cc(OC)c2OCc2ccc(OC)cc2)cc1 [Compound 46] | 11.5 µM | > 200 µM | 11 ± 2.3 µM | – | >18.2 | – | 11 µM | – | – | –
7 | C=CCc1ccc(Oc2cc([C@@H](O)C=C)cc(OC)c2O)c(OC)c1 [Compound 3, 1-[(7S)-hydroxy-8-propenyl]-3-[3′-methoxy-1′-(8′-propenyl)-phenoxy]-4-hydroxy-5-methoxybenzene] | > 30 µM | – | – | > 200 µM | – | > 30 µM | – | – | – | –
8 | O=C(Cn1ccnc1[N+](=O)[O-])NCc1ccccc1 [Bzd, benznidazole, reference compound] | 5.5 µM | – | – | 190 ± 13.5 µM | 34.5 | 5.5 ± 1.4 µM | – | – | – | –
9 | C=CCc1ccc(Oc2cc([C@@H](O)C=C)cc(OC)c2OC)c(OC)c1 [Compound 4, 1-[(7S)-hydroxy-8-propenyl]-3-[3′-methoxy-1′-(8′-propenyl)-phenoxy]-4,5-dimethoxybenzene] | 14.5 µM | – | – | > 200 µM | >14.0 | 14.3 ± 1.9 µM | 7.94 µM | – | – | –
10 | C=CCc1cc(OC)cc(Oc2cc(CC=C)cc(OC)c2OS(=O)(=O)C(F)(F)F)c1 [Compound 33] | > 30 µM | > 200 µM | > 30 µM | – | – | – | 4.27 µM | – | – | –
11 | C=CCc1ccc(Oc2cc(C(=O)C=C)cc(OC)c2O)c(OC)c1 [Compound 5, 4-hydroxy-5-methoxy-3-[3′-methoxy-1′-(8′-propenyl)phenoxy]-1-(7-oxo-8-propenyl)benzene] | > 30 µM | – | – | > 200 µM | – | > 30 µM | 10 µM | – | – | –
12 | C=CCc1cc(OC)c(OC)c(Oc2ccc(CCC)cc2OC)c1 [Compound 38] | 11.7 µM | > 200 µM | 11.7 ± 7 µM | – | >17.1 | – | – | – | – | –
13 | C=CCOc1c(OC)cccc1Oc1ccc(CC=C)cc1OC [Compound 49] | > 30 µM | > 200 µM | > 30 µM | – | – | – | – | – | – | –
14 | C=CCc1ccc(Oc2cc(C(=O)C=C)cc(OC)c2OC(C)=O)c(OC)c1 [Compound 7, 4-Acetoxy-5-methoxy-3-[3′-methoxy-1′-(8′-propenyl)phenoxy]-1-(7-oxo-8-propenyl)benzene] | 4.27 µM | – | – | > 200 µM | >47.6 | 4.3 µM | – | 5.38 | 9.55 µM | 4.2 ± 1.1 µM
15 | CCCc1ccc(Oc2cc(CCC)cc(OC)c2OC)c(OC)c1 [Compound 22] | > 30 µM | > 200 µM | > 30 µM | – | – | – | – | – | – | –
16 | C=CCc1cc(OC)c(OCc2ccc(OC)cc2)c(Oc2ccc(CCC)cc2OC)c1 [Compound 40] | 8.51 µM | > 200 µM | 8.6 ± 2.1 µM | – | >23.3 | – | – | – | – | –
17 | C=CCc1ccc(Oc2cc(CC=C)cc(OC)c2O)cc1 [Compound 45] | 22.4 µM | 123 ± 9.8 µM | 22.5 ± 18.8 µM | – | 5.5 | – | – | – | – | –
18 | C=CCc1ccc(Oc2cc(CC=C)cc(OC)c2OCCCCC)c(OC)c1 [Compound 8] | > 30 µM | – | – | > 200 µM | – | > 30 µM | – | – | – | –
19 | CCCc1cc(OC)cc(Oc2ccc(CCC)cc2OC)c1 [Compound 35] | 11 µM | – | – | > 200 µM | >18.3 | 10.9 ± 6.5 µM | – | – | – | –
20 | COc1cc(CC(C)O)ccc1Oc1cc(CC(C)O)cc(OC)c1OC (stereo not drawn) [Compound 31] | 13.2 µM | > 200 µM | 13.3 ± 3.6 µM | – | >15.0 | – | 28.2 µM | – | – | –
21 | C=CCc1ccc(Oc2cc(CCC)cc(OC)c2O)c(OC)c1 [Compound 37] | 10.5 µM | 14.2 ± 0.1 µM | 10.5 ± 8.3 µM | – | 1.4 | – | – | – | – | –
22 | C=CCc1ccc(Oc2cc(C(=O)C=C)cc(OC)c2OC)c(OC)c1 [Compound 6, 4,5-dimethoxy-3-[3′-methoxy-1′-(8′-propenyl)phenoxy]-1-(7-oxo-8-propenyl)benzene] | 26.3 µM | – | – | > 200 µM | >7.6 | 26.3 ± 1.3 µM | 30.2 µM | – | – | –
23 | C=CCc1ccc(Oc2cc(CCC)cc(OC)c2OCc2ccc(OC)cc2)c(OC)c1 [Compound 41] | 13.5 µM | > 200 µM | 13.4 ± 5.4 µM | – | >14.9 | – | – | – | – | –
24 | CCCOc1c(OC)cc(CCC)cc1Oc1ccc(CCC)cc1OC [Compound 18] | > 30 µM | > 200 µM | > 30 µM | – | – | – | 87.1 µM | – | – | –
